US6716625B1, “Histidine kinases of Aspergillus and other fungal species, related compositions, and methods of use” (priority 1997, dated 2004)
*1 amine or outer side, *2 acyl side, *3 side chain or, on linkers, in order; H or OH if unused. Where a SMILES comes first, the peptide text is derived from it. Bridges are numbered along the chain shown (N, C = ends). [ ]: non-standard residue; d: D form. The star is where a group is joined. Orn(4R-OH,5R-OH) = O=C([C@H](C[C@@H](O)[C@@H](O)N[*:3])N[*:1])[*:2]; hTyr(3S-OH,4S-OH) = N[C@H](C(=O)O)[C@H](O)[C@@H](O)c1ccc(O)cc1; Pro(3S-OH,4S-Me) = C[C@H]1CN[C@H](C(=O)O)[C@H]1O; Benzoyl(4-octyloxy) = CCCCCCCCOc1ccc(C(=O)*)cc1; Hyp = O=C(O)[C@@H]1C[C@@H](O)CN1

What was measured:
[1] = system: C. albicans wild-type, ΔCOS-1/ΔCOS-1, hemizygous and reconstituted strains; experiment: Sensitivity of C. albicans COS-1 strains to antifungal drugs in liquid RPMI medium (NCCLS M27-T); format: cell-based, Candida albicans
Description: For determination of viability and growth, each strain tested was grown from −80° C. stocks overnight at 37° C. in 50 ml of Sabouraud dextrose broth (30 g/L) (Difco, Catalog Number 0382-17-9) in 250 ml flasks with shaking at 180 rpm. Three hundred milliliter Nephelo flasks (Bellco) containing 60 ml medium were inoculated with 1×10^6 cells/ml (final concentration) from the starter culture and incubated at 37° C. with orbital shaking at 180 rpm. The optical density of each culture was determined periodically using a Klett-Summerson Photoelectric Colorimeter (Klett). For cell viability determination, overnight cultures were diluted and known numbers (as determined by hemacytometer counts) were plated onto agar-solidified SD medium and the numbers of resulting colonies determined. The sensitivity of each strain to a number of antifungal drugs in liquid medium was performed essentially as described in the National Committee for Clinical Laboratory Standards (NCCLS) 27T-protocol (Galgiani et al., NCCLS, 15:1-29 [1995]).

[2] = system: A. fumigatus wild-type and ΔFOS-1 strains; experiment: Sensitivity to antifungals, variation of NCCLS M27T-protocol (microtiter broth); format: cell-based, Aspergillus fumigatus; settings: 1×RPMI medium, 48 hours, 37° C., 96-well plates
Description: Sensitivity to antifungals: To assess the differential sensitivities of the wild-type and ΔFOS-1 strains to a number of antifungal compounds, the minimum inhibitor concentration of amphotericin B, nikkomycin Z, benomyl, miconazole, ketoconazole, fluconazole, cilofungin, 5-fluorocytosine and calcofluor white M2R new against the wild-type and ΔFOS-1 strains was determined. This fungal sensitivity was determined using a variation of the National Committee for Clinical Laboratory Standards (NCCLS) M27T-protocol (Galgiani et al., NCCLS, 15:1-29 [1995]). Briefly, serial dilutions of the anti-fungal drugs were made in 100 μl 1×RPMI medium (Life Technologies) and an additional 100 μl 1×RPMI medium containing 2×10^4 conidia/ml of each strain was added to each well of 96-well microtiter plates. Plates were incubated for 48 hours with gentle shaking at 37° C. The amount of growth in each well was estimated using a inverted phase microscope.

[3] = system: A. fumigatus wild-type strain; experiment: Dicarboximide drug sensitivity: hyphal extension on agar-solidified MPG medium, wild-type strain; format: cell-based, Aspergillus fumigatus; settings: mean ± standard deviation of at least 12 data points
Description: (§1) Although an understanding of the mechanism is not necessary in order to use the present invention, resistance to dicarboximide antifungals by a number of fungi appears to involve a histidine kinase mutation. […] To test if the ΔFOS-1 strain was also resistant to vinclozolin, iprodione and procymidone, the growth of wild-type and ΔFOS-1 strains on medium containing each drug was examined. Briefly, wild-type and ΔFOS-1 conidia (1×10^3 in 2 μl) were inoculated onto agar-solidified MPG medium containing 10 μg/ml vinclozolin or iprodione, or 12 μg/ml procymidone. Hyphal extension rates in mm/hr were recorded, and a mean determined based on at least 12 individual data points. Results are shown±standard deviation. P values were calculated using the Students t test (http://nimitz.mcs.kent.edu/˜blewis/stat/tTest.html).

[4] = system: A. fumigatus ΔFOS-1 strain; experiment: Dicarboximide drug sensitivity: hyphal extension on agar-solidified MPG medium, ΔFOS-1 strain; format: cell-based, Aspergillus fumigatus; settings: mean ± standard deviation of at least 12 data points
Description: as §1

[5] = system: A. fumigatus wild-type and ΔFOS-1 strains; experiment: Effect of oxidative stress compounds on hyphal growth; format: cell-based, Aspergillus fumigatus; settings: agar-solidified MPG medium; diamide 0-2 mM or menadione 0-0.06 mM; 37° C., 3 days
Description: Effect of oxidative stress compounds: To determine the effect of various oxidative stress-inducing compounds on hyphal growth in the wild-type and ΔFOS-1 strains, 2 μl water containing 1×10^3 conidia were placed as single spots onto 150 mm×15 mm petri plates containing 30 ml agar-solidified MPG medium. In addition, these agar plates contained either diamide (0-2 mM; Sigma) (an SH residue oxidant that attacks surface proteins; de Souza Pereira and Geibel, J. Mol. Cell Biochem., 201:17-24 [1999]), or menadione (0-0.06 mM; Sigma Aldrich) (a superoxide generator; Caricchio et al., Clin. Immunol., 93:65-74 [1999]). These plates were incubated at 37° C. for 3 days. Hyphal growth/extension rates were determined by recording the distance traveled by hyphal fronts after various times of incubation.

[6] = system: OS-1 mutant strains of N. crassa; settings: Beever 1983; cited from earlier work
[7] = 10 μg/ml drug in agar-solidified MPG medium
[8] = 12 μg/ml drug in agar-solidified MPG medium

Structure (SMILES)	Relative sensitivity of wild-type, ΔCOS-1/ΔCOS-1, hemizygous and reconstituted strains [1]	Difference in minimum inhibitor concentration between wild-type and ΔFOS-1 strains [2]	other results
CCCCNC(=O)n1c(NC(=O)OC)nc2ccccc21 [benomyl]	equally sensitive	No differences in minimum inhibitor concentration	–
Clc1ccc(COC(Cn2ccnc2)c2ccc(Cl)cc2Cl)c(Cl)c1 (stereo not drawn) [miconazole]	equally sensitive	No differences in minimum inhibitor concentration	–
C[C@@H]1[C@H](O)[C@@H](C)/C=C/C=C/C=C/C=C/C=C/C=C/C=C/[C@H](O[C@@H]2O[C@H](C)[C@@H](O)[C@H](N)[C@@H]2O)C[C@@H]2O[C@](O)(C[C@@H](O)C[C@@H](O)[C@H](O)CC[C@@H](O)C[C@@H](O)CC(=O)O[C@H]1C)C[C@H](O)[C@H]2C(=O)O [amphotericin B]	equally sensitive	No differences in minimum inhibitor concentration	–
CC(C)NC(=O)N1CC(=O)N(c2cc(Cl)cc(Cl)c2)C1=O [iprodione]	–	–	Hyphal extension rate, wild-type [3, 7]: 0.29 ± 0.11 mm/hr; Hyphal extension rate, ΔFOS-1 [4, 7]: 0.52 ± 0.03 mm/hr
CN(C)C(=O)/N=N/C(=O)N(C)C [diamide]	–	–	Difference in hyphal growth/extension rates between wild-type and ΔFOS-1 strains [5]: No differences in hyphal growth/extension rates
O=S(=O)([O-])c1cc(Nc2nc(Nc3ccccc3)nc(N(CCO)CCO)n2)ccc1/C=C/c1ccc(Nc2nc(Nc3ccccc3)nc(N(CCO)CCO)n2)cc1S(=O)(=O)[O-].[Na+].[Na+] [calcofluor white M2R new]	–	No differences in minimum inhibitor concentration	–
CC(=O)N1CCN(c2ccc(OCC3COC(Cn4ccnc4)(c4ccc(Cl)cc4Cl)O3)cc2)CC1 (stereo not drawn) [ketoconazole]	equally sensitive	No differences in minimum inhibitor concentration	–
CC12CC1(C)C(=O)N(c1cc(Cl)cc(Cl)c1)C2=O (stereo not drawn) [procymidone]	–	–	Hyphal extension rate, wild-type [3, 8]: 0.21 ± 0.13 mm/hr; Hyphal extension rate, ΔFOS-1 [4, 8]: 0.48 ± 0.08 mm/hr
CCCCCCCCOc1ccc(C(=O)N[C@H]2C[C@@H](O)[C@@H](O)NC(=O)[C@@H]3[C@@H](O)[C@@H](C)CN3C(=O)[C@H]([C@@H](C)O)NC(=O)[C@H]([C@H](O)[C@@H](O)c3ccc(O)cc3)NC(=O)[C@@H]3C[C@@H](O)CN3C(=O)[C@H]([C@@H](C)O)NC2=O)cc1 [cilofungin] ({Benzoyl(4-octyloxy)}-[Orn(4R-OH,5R-OH)]T[Hyp][hTyr(3S-OH,4S-OH)]T[Pro(3S-OH,4S-Me)]; lactam 1-C)	equally sensitive	No differences in minimum inhibitor concentration	–
C=CC1(C)OC(=O)N(c2cc(Cl)cc(Cl)c2)C1=O (stereo not drawn) [vinclozolin]	equally sensitive	–	Resistance of OS-1 mutant strains [6]: highly resistant; Hyphal extension rate, wild-type [3, 7]: 0.34 ± 0.11 mm/hr; Hyphal extension rate, ΔFOS-1 [4, 7]: 0.50 ± 0.05 mm/hr
C[C@@H]([C@H](N)C(=O)N[C@H](C(=O)O)[C@H]1O[C@@H](n2ccc(=O)[nH]c2=O)[C@H](O)[C@@H]1O)[C@H](O)c1ccc(O)cn1 [nikkomycin Z]	equally sensitive	No differences in minimum inhibitor concentration	–
CC1=CC(=O)c2ccccc2C1=O [menadione]	–	–	Difference in hyphal growth/extension rates between wild-type and ΔFOS-1 strains [5]: No differences in hyphal growth/extension rates
Nc1nc(=O)[nH]cc1F [5-fluorocytosine]	equally sensitive	No differences in minimum inhibitor concentration	–
OC(Cn1cncn1)(Cn1cncn1)c1ccc(F)cc1F [fluconazole]	equally sensitive	No differences in minimum inhibitor concentration	–
